In patent US12503438B2, “Compounds for the treatment of kinase-dependent disorders” (Exelixis, Inc., priority 2019, dated 2025):

Tests used:
KDR = KDR (Homo sapiens, UniProt P35968); assay: KDR autophosphorylation ELISA in HUVEC cells; assay type: cell-based; parameters: endogenous in cells; host or cells: HUVEC (Lonza #C2519A); settings: cellular activity, VEGF165-stimulated, phospho-KDR ELISA
Summary of the method: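 HUVECs grown 24 h at 37 °C, then serum-starved 24 h, were preincubated 1 h with an 8-point compound series (0.3% DMSO) and stimulated with 100 ng/mL human VEGF165 for 5 min. Phospho-KDR in lysates was measured by sandwich ELISA against a phospho-KDR standard; IC50 from 4-parameter logistic fit.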

Mer = target: T1, Mer (Homo sapiens, UniProt Q12866); assay: Mer autophosphorylation ELISA in transient transfected 293A cells; assay type: cell-based; settings: cellular activity; MERTK-transfected 293A cells, phospho-Mer ELISA
T1 construct: host or cells: 293A cells (Thermo Fisher #R70507)
T1 sequence (Q12866 21-999): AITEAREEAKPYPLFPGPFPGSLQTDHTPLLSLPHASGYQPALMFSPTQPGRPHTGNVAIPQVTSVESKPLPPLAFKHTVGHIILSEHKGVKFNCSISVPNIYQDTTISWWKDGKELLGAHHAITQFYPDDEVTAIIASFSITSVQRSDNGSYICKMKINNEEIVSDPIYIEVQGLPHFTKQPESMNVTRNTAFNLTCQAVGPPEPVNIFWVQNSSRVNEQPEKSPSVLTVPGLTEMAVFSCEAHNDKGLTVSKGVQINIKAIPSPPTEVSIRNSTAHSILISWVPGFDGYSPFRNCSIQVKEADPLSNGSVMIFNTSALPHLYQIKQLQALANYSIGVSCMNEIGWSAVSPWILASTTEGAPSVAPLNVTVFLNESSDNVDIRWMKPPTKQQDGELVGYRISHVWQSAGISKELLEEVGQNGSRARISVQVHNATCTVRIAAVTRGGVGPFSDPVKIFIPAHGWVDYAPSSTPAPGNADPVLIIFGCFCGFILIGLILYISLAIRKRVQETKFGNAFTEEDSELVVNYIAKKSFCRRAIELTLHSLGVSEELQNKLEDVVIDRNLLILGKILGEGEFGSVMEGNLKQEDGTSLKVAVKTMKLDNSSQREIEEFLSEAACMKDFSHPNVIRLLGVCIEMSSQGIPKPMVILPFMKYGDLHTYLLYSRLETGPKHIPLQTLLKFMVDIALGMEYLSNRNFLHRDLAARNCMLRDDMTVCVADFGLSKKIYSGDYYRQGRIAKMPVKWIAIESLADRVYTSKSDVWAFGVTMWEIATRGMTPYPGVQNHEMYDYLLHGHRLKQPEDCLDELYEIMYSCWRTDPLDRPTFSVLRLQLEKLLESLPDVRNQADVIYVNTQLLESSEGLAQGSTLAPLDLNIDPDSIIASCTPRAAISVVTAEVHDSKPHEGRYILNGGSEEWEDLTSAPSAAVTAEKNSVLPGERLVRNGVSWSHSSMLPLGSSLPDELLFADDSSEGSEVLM
Summary of the method: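 293A cells transiently transfected with human MERTK DNA, then treated 1 h with 8-point compound dilutions in serum-free medium (0.3% DMSO). Phospho-Mer in lysates quantified by sandwich ELISA against phospho-Mer standard; normalised to DMSO (100%) and reference inhibitor (0%), IC50 from 4-parameter logistic fit.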

Sequence of KDR (P35968 20-1356): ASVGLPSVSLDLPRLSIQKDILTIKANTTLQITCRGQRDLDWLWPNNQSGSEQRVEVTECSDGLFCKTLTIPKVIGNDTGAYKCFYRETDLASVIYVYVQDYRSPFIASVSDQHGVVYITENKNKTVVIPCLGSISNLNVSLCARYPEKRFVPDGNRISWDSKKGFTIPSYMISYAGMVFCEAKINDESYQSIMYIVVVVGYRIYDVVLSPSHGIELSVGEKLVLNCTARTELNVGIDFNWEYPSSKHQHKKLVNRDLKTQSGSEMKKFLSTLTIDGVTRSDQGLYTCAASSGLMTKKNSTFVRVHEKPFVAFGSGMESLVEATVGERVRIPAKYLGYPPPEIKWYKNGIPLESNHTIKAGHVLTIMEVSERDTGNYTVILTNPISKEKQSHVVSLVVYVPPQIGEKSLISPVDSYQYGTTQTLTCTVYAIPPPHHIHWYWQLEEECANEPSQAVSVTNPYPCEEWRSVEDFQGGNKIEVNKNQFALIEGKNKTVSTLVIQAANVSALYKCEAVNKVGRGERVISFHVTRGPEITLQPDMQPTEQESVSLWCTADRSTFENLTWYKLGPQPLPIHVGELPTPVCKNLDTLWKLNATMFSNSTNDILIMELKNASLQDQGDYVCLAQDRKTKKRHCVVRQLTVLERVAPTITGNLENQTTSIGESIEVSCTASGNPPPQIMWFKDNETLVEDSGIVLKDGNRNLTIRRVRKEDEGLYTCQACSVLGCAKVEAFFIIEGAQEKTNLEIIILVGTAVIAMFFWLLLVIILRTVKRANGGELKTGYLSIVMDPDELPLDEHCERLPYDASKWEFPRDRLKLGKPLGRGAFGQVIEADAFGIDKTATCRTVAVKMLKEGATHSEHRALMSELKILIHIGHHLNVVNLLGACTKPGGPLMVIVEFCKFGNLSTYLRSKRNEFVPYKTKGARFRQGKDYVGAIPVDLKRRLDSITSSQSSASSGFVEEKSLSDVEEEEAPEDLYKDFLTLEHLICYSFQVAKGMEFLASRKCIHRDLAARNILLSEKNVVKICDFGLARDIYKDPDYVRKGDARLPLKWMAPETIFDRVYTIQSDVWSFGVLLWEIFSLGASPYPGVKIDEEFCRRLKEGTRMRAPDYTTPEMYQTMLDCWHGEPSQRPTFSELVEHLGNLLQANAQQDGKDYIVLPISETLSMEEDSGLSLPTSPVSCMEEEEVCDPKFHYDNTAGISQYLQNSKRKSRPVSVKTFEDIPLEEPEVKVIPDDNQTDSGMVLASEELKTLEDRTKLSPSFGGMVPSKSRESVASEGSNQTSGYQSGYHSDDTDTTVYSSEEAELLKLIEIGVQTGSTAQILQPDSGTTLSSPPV

Structure (SMILES)	IC50 (KDR) [nM]	IC50 (Mer) [nM]
Cc1ccn(-c2ccc3c(Oc4ccc(NC(=O)C5(C(=O)Nc6ccc(F)cc6)CC5)cc4)ccnc3c2)n1 [Compound 91, 1-N′-(4-Fluorophenyl)-1-N-[4-[7-(3-methylpyrazol-1-yl)quinolin-4-yl]oxyphenyl]cyclopropane-1,1-dicarboxamide]	100 to 300	100 to 300
CC(=O)N1CCC(c2ccc3c(Oc4ccc(NC(=O)C5(C(=O)Nc6ccc(F)cc6)CC5)cc4)ccnc3c2)C1 (stereo not drawn) [Compound 92, 1-N-[4-[7-(1-Acetylpyrrolidin-3-yl)quinolin-4-yl]oxyphenyl]-1-N′-(4-fluorophenyl)cyclopropane-1,1-dicarboxamide]	100 to 300	10 to 100
CS(=O)(=O)N1CCC(c2ccc3c(Oc4ccc(NC(=O)C5(C(=O)Nc6ccc(F)cc6)CC5)cc4)ccnc3c2)C1 (stereo not drawn) [Compound 93, 1-N′-(4-Fluorophenyl)-1-N-[4-[7-(1-methylsulfonylpyrrolidin-3-yl)quinolin-4-yl]oxyphenyl]cyclopropane-1,1-dicarboxamide]	> 300	100 to 300
Cc1cc(-c2ccc3c(Oc4ccc(NC(=O)C5(C(=O)Nc6ccc(F)cc6)CC5)cc4)ccnc3c2)nn1C [Compound 101, 1-N-[4-[7-(1,5-Dimethylpyrazol-3-yl)quinolin-4-yl]oxyphenyl]-1-N′-(4-fluorophenyl)cyclopropane-1,1-dicarboxamide]	10 to 100	10 to 100
O=C(Nc1ccc(F)cc1)C1(C(=O)Nc2ccc(Oc3ccnc4cc(-c5cc6ccccn6n5)ccc34)cc2)CC1 [Compound 104, 1-N′-(4-Fluorophenyl)-1-N-[4-(7-pyrazolo[1,5-a]pyridin-2-ylquinolin-4-yl)oxyphenyl]cyclopropane-1,1-dicarboxamide]	10 to 100	100 to 300
Cc1cc2c(Oc3cc(F)c(NC(=O)C4(C(=O)Nc5ccc(F)cc5)CC4)cc3F)ccnc2cc1-c1cnn(C)c1 [Compound 105, 1-N′-[2,5-Difluoro-4-[6-methyl-7-(1-methylpyrazol-4-yl)quinolin-4-yl]oxyphenyl]-1-N-(4-fluorophenyl)cyclopropane-1,1-dicarboxamide]	10 to 100	10 to 100
Cc1cc2c(Oc3ccc(NC(=O)C4(C(=O)Nc5ccc(F)cc5)CC4)cc3)ccnc2cc1-c1cc[nH]n1 [Compound 107, 1-N′-(4-Fluorophenyl)-1-N-[4-[6-methyl-7-(1H-pyrazol-3-yl)quinolin-4-yl]oxyphenyl]cyclopropane-1,1-dicarboxamide]	10 to 100	10 to 100
Cc1cc2c(Oc3ccc(NC(=O)C4(C(=O)Nc5ccc(F)cc5)CC4)cc3)ccnc2cc1-c1ccn(C)n1 [Compound 108, 1-N′-(4-Fluorophenyl)-1-N-[4-[6-methyl-7-(1-methylpyrazol-3-yl)quinolin-4-yl]oxyphenyl]cyclopropane-1,1-dicarboxamide]	10 to 100	100 to 300

Now from value to compound:

IC50 (KDR) [nM]	IC50 (Mer) [nM]	Structure (SMILES)
10 to 100	100 to 300	O=C(Nc1ccc(F)cc1)C1(C(=O)Nc2ccc(Oc3ccnc4cc(-c5ccccc5)ccc34)cc2)CC1 [Compound 55, 1-N′-(4-Fluorophenyl)-1-N-[4-(7-phenylquinolin-4-yl)oxyphenyl]cyclopropane-1,1-dicarboxamide]
≤ 10	10 to 100	Cc1cn(-c2ccc3c(Oc4ccc(NC(=O)C5(C(=O)Nc6ccc(F)cc6)CC5)cc4)ccnc3c2)cn1 [Compound 87, 1-N′-(4-Fluorophenyl)-1-N-[4-[7-(4-methylimidazol-1-yl)quinolin-4-yl]oxyphenyl]cyclopropane-1,1-dicarboxamide]
10 to 100	10 to 100	Nc1n[nH]cc1-c1ccc2c(Oc3ccc(NC(=O)C4(C(=O)Nc5ccc(F)cc5)CC4)cc3)ccnc2c1 [Compound 90, 1-N-[4-[7-(3-Amino-1H-pyrazol-4-yl)quinolin-4-yl]oxyphenyl]-1-N′-(4-fluorophenyl)cyclopropane-1,1-dicarboxamide]
≤ 10	10 to 100	O=C(Nc1ccc(F)cc1)C1(C(=O)Nc2ccc(Oc3ccnc4cc(-c5cnn(CF)c5)ccc34)cc2)CC1 [Compound 94, 1-N-[4-[7-[1-(Fluoromethyl)pyrazol-4-yl]quinolin-4-yl]oxyphenyl]-1-N′-(4-fluorophenyl)cyclopropane-1,1-dicarboxamide]
≤ 10	10 to 100	O=C(Nc1ccc(F)cc1)C1(C(=O)Nc2ccc(Oc3ccnc4cc(C5=CCOC5)ccc34)cc2)CC1 [Compound 95, 1-N-[4-[7-(2,5-Dihydrofuran-3-yl)quinolin-4-yl]oxyphenyl]-1-N′-(4-fluorophenyl)cyclopropane-1,1-dicarboxamide]
10 to 100	10 to 100	Cc1cnn(-c2ccc3c(Oc4ccc(NC(=O)C5(C(=O)Nc6ccc(F)cc6)CC5)cc4)ccnc3c2)c1 [Compound 96, 1-N′-(4-Fluorophenyl)-1-N-[4-[7-(4-methylpyrazol-1-yl)quinolin-4-yl]oxyphenyl]cyclopropane-1,1-dicarboxamide]
10 to 100	≤ 10	Nc1cc(-c2ccc3c(Oc4ccc(NC(=O)C5(C(=O)Nc6ccc(F)cc6)CC5)cc4)ccnc3c2)ccn1 [Compound 97, 1-N-[4-[7-(2-Aminopyridin-4-yl)quinolin-4-yl]oxyphenyl]-1-N′-(4-fluorophenyl)cyclopropane-1,1-dicarboxamide]
10 to 100	100 to 300	O=C(Nc1ccc(F)cc1)C1(C(=O)Nc2ccc(Oc3ccnc4cc(-c5ccn(C6CC6)n5)ccc34)cc2)CC1 [Compound 98, 1-N-[4-[7-(1-Cyclopropylpyrazol-3-yl)quinolin-4-yl]oxyphenyl]-1-N′-(4-fluorophenyl)cyclopropane-1,1-dicarboxamide]
≤ 10	10 to 100	Cc1cc(-c2ccc3c(Oc4ccc(NC(=O)C5(C(=O)Nc6ccc(F)cc6)CC5)cc4)ccnc3c2)n[nH]1 [Compound 99, 1-N′-(4-Fluorophenyl)-1-N-[4-[7-(5-methyl-1H-pyrazol-3-yl)quinolin-4-yl]oxyphenyl]cyclopropane-1,1-dicarboxamide]
≤ 10	10 to 100	O=C(Nc1ccc(F)cc1)C1(C(=O)Nc2ccc(Oc3ccnc4cc(-c5ccn(CF)n5)ccc34)cc2)CC1 [Compound 102, 1-N-[4-[7-[1-(Fluoromethyl)pyrazol-3-yl]quinolin-4-yl]oxyphenyl]-1-N′-(4-fluorophenyl)cyclopropane-1,1-dicarboxamide]
